Read-outs that look alike come from different tables or passages of the source.

Experimental findings from patent US20250326771A1, “PIPERAZINE DERIVATIVES USEFUL IN HIV THERAPY” (VIIV HEALTHCARE COMPANY, priority 2022, published 2025) are described below.

Assay [1] deals with cIAP1-BIR2 (Homo sapiens (Human), UniProt Q13490). Put plainly: BIR binding assay (FRET competition), cIAP1 BIR2. The gist of the method:
(§1)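 Compounds tested as 15-point, 3-fold series displacing 200 nM AlexaFluor647-labelled SMAC peptide from His-tagged BIR domain (cIAP1-BIR3 50 nM; cIAP1-BIR2 and cIAP2-BIR2 325 nM; XIAP-BIR3 100 nM), pH 7.4, 60 min. Eu-W1024 (2 nM) added 30 min; emission ratio fitted for IC50.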

The target in assay [2] is XIAP-BIR2 (Homo sapiens (Human), UniProt P98170). Put plainly: BIR binding assay (FRET competition), XIAP BIR2. In short, it runs like this:
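Competitive TR-FRET used His-tagged XIAP-BIR2 (200 nM) and 200 nM AlexaFluor647-labelled AVPIAQKSE SMAC peptide in HEPES buffer pH 7.4 with CHAPS, glycerol and DTT, incubated 60 min before 30 min with 2 nM Eu-W1024. The 615/665 nm ratio from a 15-point, 3-fold series was fit with a four-parameter model for IC50/pIC50.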

For assay [3], the system named is Jurkat HIV-luciferase clones. Description: Jurkat latency reversal assay. The format is cell-based. The note with it: Homo sapiens, 48 h; Jurkat latency reversal assay potency; read-out: Jurkat pEC50 (converted). The gist of the method: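 Pooled Jurkat clones C16, 115 and N6, each carrying one or two integrated HIV-luciferase proviruses and kept in 500 nM EFV, were exposed to 3-fold, 14-point compound titrations in duplicate (10 μM top, 0.5% DMSO) for 48 h at 37° C. Luciferase luminescence was fitted by four-parameter logistic regression for EC50 and maximal percent activation versus vehicle.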

Assay [4] deals with cIAP2-BIR3 (Homo sapiens (Human), UniProt Q13489). Description: BIR binding assay (FRET competition), cIAP2 BIR3. The note with it: for cIAP2 BIR3 vs BIR2 separation window: fold separation (FS) for cIAP2.
cIAP2-BIR3, sequence (Q13489 238-349): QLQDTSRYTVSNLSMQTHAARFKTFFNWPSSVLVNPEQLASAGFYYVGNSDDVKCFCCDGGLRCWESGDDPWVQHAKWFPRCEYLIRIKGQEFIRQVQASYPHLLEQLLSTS
The target in assay [5] is XIAP-BIR3 (Homo sapiens (Human), UniProt P98170). Description: BIR binding assay (FRET competition), XIAP BIR3. Particulars: for XIAP BIR3 vs BIR2 separation window: fold separation (FS) for XIAP. The gist of the method: as §1
XIAP-BIR3, sequence (P98170 241-356): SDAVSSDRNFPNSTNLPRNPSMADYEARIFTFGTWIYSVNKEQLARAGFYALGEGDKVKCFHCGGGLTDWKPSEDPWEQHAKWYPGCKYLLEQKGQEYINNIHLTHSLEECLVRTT
The target of assay [6] is cIAP1-BIR3 (Homo sapiens (Human), UniProt Q13490). Description: BIR binding assay (FRET competition), cIAP1 BIR3. Particulars: for cIAP1 BIR3 vs BIR2 separation window: fold separation (FS) for cIAP1. The gist of the method:
as §1

Assay [7] addresses cIAP2-BIR2 (Homo sapiens (Human), UniProt Q13489). Put plainly: BIR binding assay (FRET competition), cIAP2 BIR2. The gist of the method: as §1
Setting [8] is: FRET competition binding, read-out: XIAP BIR2 (pIC50) (converted).

cIAP1-BIR2, sequence (Q13490 173-257): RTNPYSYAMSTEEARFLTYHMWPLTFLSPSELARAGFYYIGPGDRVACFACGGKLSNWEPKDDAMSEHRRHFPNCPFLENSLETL
XIAP-BIR2, sequence (P98170 124-240): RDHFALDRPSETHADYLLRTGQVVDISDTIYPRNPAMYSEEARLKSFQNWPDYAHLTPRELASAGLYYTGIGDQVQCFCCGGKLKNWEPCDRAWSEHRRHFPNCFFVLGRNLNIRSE
cIAP1-BIR3, sequence (Q13490 253-363): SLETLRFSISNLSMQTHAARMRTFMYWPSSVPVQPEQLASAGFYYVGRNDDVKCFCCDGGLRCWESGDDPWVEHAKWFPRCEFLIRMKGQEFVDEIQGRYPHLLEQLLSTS
cIAP2-BIR2, sequence (Q13489 158-242): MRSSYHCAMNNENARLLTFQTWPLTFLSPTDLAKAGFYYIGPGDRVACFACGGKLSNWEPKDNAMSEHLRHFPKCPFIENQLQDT

As for `C[C@@H]1CN(CC(=O)N2CC(C)(C)c3[nH]c(=O)c(Cc4ccc(F)cc4)cc32)[C@@H](CN2CCO[C@H](COc3ccc(F)c(OC[C@@H]4CN(C[C@H]5CN[C@H](C)CN5CC(=O)N5CC(C)(C)c6[nH]c(=O)c(Cc7ccc(F)cc7)cc65)CCO4)c3)C2)CN1` [Example 75, 1,1′-(2,2′-((3R,3′R,6R,6′R)-(((2S,2'S)-(((4-fluoro-1,3-phenylene)bis(oxy))bis(methylene))bis(morpholine-2,4-diyl))bis(methylene))bis(3-methylpiperazine-6,1-diyl))bis(acetyl))bis(6-(4-fluorobenzyl)-3,3-dimethyl-1,2,3,4-tetrahydro-5H-pyrrolo[3,2-b]pyridin-5-one)], the IC50 in assay [1] is 22.4 to 1000 nM; in assay [2] it was 10000 to 51300 nM; in assay [4] it was 1.38 to 7.94 nM; in assay [5] it was 1.38 to 7.94 nM; in assay [6] it was 1.38 to 7.94 nM; in assay [7], 22.4 to 1000 nM. Besides, the EC50 in assay [3] was 0.49 to 12.6 nM. Further, the “cIAP2 BIR3 vs BIR2 separation window” value in assay [4] is on record as “+++ (10,000>FS>1,000)”. In addition, the “XIAP BIR3 vs BIR2 separation window” value in assay [5] is “++++ (FS>10,000)”. Besides, the “cIAP1 BIR3 vs BIR2 separation window” value in assay [6] was “+++ (10,000>FS>1,000)”.
As to `C[C@@H]1CN(CC(=O)N2CC(C)(C)c3[nH]c(=O)c(Cc4ccc(F)cc4)cc32)[C@@H](CN2CCO[C@H](COc3ccc(C#N)c(OC[C@@H]4CN(C[C@H]5CN[C@H](C)CN5CC(=O)N5CC(C)(C)c6[nH]c(=O)c(Cc7ccc(F)cc7)cc65)CCO4)c3)C2)CN1` [Example 77, 2,4-bis(((S)-4-(((2R,5R)-1-(2-(6-(4-fluorobenzyl)-3,3-dimethyl-5-oxo-2,3,4,5-tetrahydro-1H-pyrrolo[3,2-b]pyridin-1-yl)-2-oxoethyl)-5-methylpiperazin-2-yl)methyl)morpholin-2-yl)methoxy)benzonitrile], the IC50 in assay [1] was 1000 to 3160 nM; in assay [2] (setting [8]), 10000 to 51300 nM; in assay [4], 1.38 to 7.94 nM; in assay [5], 15.8 to 31.6 nM; in assay [6], 1.38 to 7.94 nM; in assay [7], 1000 to 3160 nM. Further, in assay [3], the EC50 is 12.6 to 63.1 nM. Besides, in assay [4], the “cIAP2 BIR3 vs BIR2 separation window” value was “+++ (10,000>FS>1,000)”. For the same compound, in assay [5], the “XIAP BIR3 vs BIR2 separation window” value is given as “++++ (FS>10,000)”. For the same compound, the “cIAP1 BIR3 vs BIR2 separation window” value in assay [6] is on record as “+++ (10,000>FS>1,000)”.
On to `Cc1c(OC[C@@H]2CN(C[C@H]3CN[C@H](C)CN3CC(=O)N3CC(C)(C)c4[nH]c(=O)c(Cc5ccc(F)cc5)cc43)CCO2)cccc1OC[C@@H]1CN(C[C@H]2CN[C@H](C)CN2CC(=O)N2CC(C)(C)c3[nH]c(=O)c(Cc4ccc(F)cc4)cc32)CCO1` [Example 79, 1,1′-(2,2′-((3R,3′R,6R,6′R)-(((2S,2'S)-(((2-methyl-1,3-phenylene)bis(oxy))bis(methylene))bis(morpholine-2,4-diyl))bis(methylene))bis(3-methylpiperazine-6,1-diyl))bis(acetyl))bis(6-(4-fluorobenzyl)-3,3-dimethyl-1,2,3,4-tetrahydro-5H-pyrrolo[3,2-b]pyridin-5-one)], for which the IC50 is 1000 to 3160 nM in assay [1]; 10000 to 51300 nM in assay [2] (setting [8]); 1.38 to 7.94 nM in assay [4]; 7.94 to 15.8 nM in assay [5]; 1.38 to 7.94 nM in assay [6]; 3160 to 10000 nM in assay [7]. For the same compound, the EC50 in assay [3] was 0.49 to 12.6 nM. In addition, the “cIAP2 BIR3 vs BIR2 separation window” value in assay [4] was “+++ (10,000>FS>1,000)”. The “XIAP BIR3 vs BIR2 separation window” value in assay [5] is recorded as “++++ (FS>10,000)”. Also, in assay [6], the “cIAP1 BIR3 vs BIR2 separation window” value is recorded as “+++ (10,000>FS>1,000)”.
Take `C[C@@H]1CN(CC(=O)N2CC(C)(C)c3[nH]c(=O)c(Cc4ccc(F)cc4)cc32)[C@@H](CN2CCO[C@H](COCc3cccc(COC[C@@H]4CN(C[C@H]5CN[C@H](C)CN5CC(=O)N5CC(C)(C)c6[nH]c(=O)c(Cc7ccc(F)cc7)cc65)CCO4)c3)C2)CN1` [Example 80, 1,1′-(2,2′-((3R,3′R,6R,6′R)-(((2S,2'S)-(((1,3-phenylenebis(methylene))bis(oxy))bis(methylene))bis(morpholine-2,4-diyl))bis(methylene))bis(3-methylpiperazine-6,1-diyl))bis(acetyl))bis(6-(4-fluorobenzyl)-3,3-dimethyl-1,2,3,4-tetrahydro-5H-pyrrolo[3,2-b]pyridin-5-one)]: the IC50 in assay [1] is 1000 to 3160 nM; in assay [2] (setting [8]), 10000 to 51300 nM; in assay [4] it was 1.38 to 7.94 nM; in assay [5], 1.38 to 7.94 nM; in assay [6] it was 1.38 to 7.94 nM; in assay [7], 3160 to 10000 nM. Further, the EC50 in assay [3] was 0.49 to 12.6 nM. In assay [4], the “cIAP2 BIR3 vs BIR2 separation window” value is on record as “+++ (10,000>FS>1,000)”. Moreover, in assay [5], the “XIAP BIR3 vs BIR2 separation window” value is given as “++++ (FS>10,000)”. Besides, the “cIAP1 BIR3 vs BIR2 separation window” value in assay [6] is given as “+++ (10,000>FS>1,000)”.
For `C[C@@H]1CN(CC(=O)N2CC(C)(C)c3[nH]c(=O)c(Cc4ccc(F)cc4)cc32)[C@@H](CN2CCO[C@H](COCc3cccc(COC[C@@H]4CN(C[C@H]5CN[C@H](C)CN5CC(=O)N5CC(C)(C)c6[nH]c(=O)c(Cc7ccc(F)cc7)cc65)CCO4)n3)C2)CN1` [Example 84, 1,1′-(2,2′-((3R,3′R,6R,6′R)-(((2S,2'S)-(((pyridine-2,6-diylbis(methylene))bis(oxy))bis(methylene))bis(morpholine-2,4-diyl))bis(methylene))bis(3-methylpiperazine-6,1-diyl))bis(acetyl))bis(6-(4-fluorobenzyl)-3,3-dimethyl-1,2,3,4-tetrahydro-5H-pyrrolo[3,2-b]pyridin-5-one)], the IC50 in assay [1] was 1000 to 3160 nM; in assay [2] (setting [8]) it was 10000 to 51300 nM; in assay [4] it was 7.94 to 15.8 nM; in assay [5], 15.8 to 31.6 nM; in assay [6] it was 7.94 to 15.8 nM; in assay [7], 3160 to 10000 nM. In assay [3], the EC50 is 0.49 to 12.6 nM. Further, in assay [4], the “cIAP2 BIR3 vs BIR2 separation window” value is listed as “+++ (10,000>FS>1,000)”. Also, the “XIAP BIR3 vs BIR2 separation window” value in assay [5] is given as “++++ (FS>10,000)”. Also, the “cIAP1 BIR3 vs BIR2 separation window” value in assay [6] was “+++ (10,000>FS>1,000)”.
In the case of `C[C@@H]1CN(CC(=O)N2CC(C)(C)c3[nH]c(=O)c(Cc4ccc(F)cc4)cc32)[C@@H](CN2CCO[C@H](COCc3c(F)c(F)c(COC[C@@H]4CN(C[C@H]5CN[C@H](C)CN5CC(=O)N5CC(C)(C)c6[nH]c(=O)c(Cc7ccc(F)cc7)cc65)CCO4)c(F)c3F)C2)CN1` [Example 85, 1,1′-(2,2′-((3R,3′R,6R,6′R)-(((2S,2'S)-((((perfluoro-1,4-phenylene)bis(methylene))bis(oxy))bis(methylene))bis(morpholine-2,4-diyl))bis(methylene))bis(3-methylpiperazine-6,1-diyl))bis(acetyl))bis(6-(4-fluorobenzyl)-3,3-dimethyl-1,2,3,4-tetrahydro-5H-pyrrolo[3,2-b]pyridin-5-one)], the IC50 was 3160 to 10000 nM in assay [1]; 10000 to 51300 nM in assay [2] (setting [8]); 15.8 to 31.6 nM in assay [4]; 31.6 to 501 nM in assay [5]; 7.94 to 15.8 nM in assay [6]; 3160 to 10000 nM in assay [7]. For the same compound, in assay [3], the EC50 was 0.49 to 12.6 nM. Further, the “cIAP2 BIR3 vs BIR2 separation window” value in assay [4] is listed as “+++ (10,000>FS>1,000)”. In addition, the “XIAP BIR3 vs BIR2 separation window” value in assay [5] is “++++ (FS>10,000)”. Also, the “cIAP1 BIR3 vs BIR2 separation window” value in assay [6] was “+++ (10,000>FS>1,000)”.
